Test results as given in patent publication US8071797B2 (priority 2008, dated 2011).

Molecular target: T1, HCV polymerase (NS5B570n-Con1) (Hepatitis C virus genotype 1b, UniProt Q9WMX2)
T1 construct: contains a 21 amino acid deletion at the C-terminus relative to the full-length HCV polymerase; 6-histidine (N); made in house; host or cells: E. coli BL21 (DE) pLysS
Experiment: HCV NS5B RNA polymerase activity assay
Type: biochemical, HCV Con1 strain
Settings: IC50 NS5B polymerase assay, Table I
Procedure: The enzymatic activity of HCV polymerase (NS5B570n-Con1) was measured as the incorporation of radiolabeled nucleotide monophosphates into acid insoluble RNA products. Unincorporated radiolabeled substrate was removed by filtration and scintillant was added to the washed and dried filter plate containing radiolabeled RNA product. The amount of RNA product generated by NS5B570-Con1 at the end of the reaction was directly proportional to the amount of light emitted by the scintillant.
The N-terminal 6-histidine tagged HCV polymerase, derived from HCV Con1 strain, genotype 1b (NS5B570n-Con1) contains a 21 amino acid deletion at the C-terminus relative to the full-length HCV polymerase and was purified from E. coli strain BL21 (DE) pLysS. The construct, containing the coding sequence of HCV NS5B Con1 (GenBank accession number AJ242654) was inserted into the plasmid construct pETI 7b, downstream of a T7 promoter expression cassette and transformed into E. coli. A single colony was grown overnight as a starter culture and later used inoculate 10 L of LB media supplemented with 100 μg/mL ampicillin at 37° C. Protein expression was induced by the addition of 0.25 mM isopropyl-β-D-thiogalactopyranoside (IPTG) when optical density at […] of the culture was between 0.6 and 0.8 and cells were harvested after 16 to 18 h at 30° C. NS5B570n-Con1 was purified to homogeneity using a three-step protocol including subsequent column chromatography on Ni-NTA, SP-Sepharose HP and Superdex 75 resins.
Each 50 μl enzymatic reaction contained 20 nM RNA template derived from the complementary sequence of the Internal Ribosome Entry Site (cIRES), 20 nM NS5B570n-Con1 enzyme, 0.5 μCi of tritiated UTP (Perkin Elmer catalog no. TRK-412; specific activity: 30 to 60 Ci/mmol; stock solution concentration from 7.5×10^-5 M to 20.6×10^-6 M), 1 μM each ATP, CTP, and GTP, 40 mM Tris-HCl pH 8.0, 40 mM NaCl, 4 mM DTT (dithiothreitol), 4 mM MgCl2, and 5 μl of compound serial diluted in DMSO. Reaction mixtures were assembled in 96-well filter plates (cat #MADVN0B, Millipore Co.) and incubated for 2 h at 30° C. Reactions were stopped by addition of 10% final (v/v) trichloroacetic acid and incubated for 40 min at 4° C. Reactions were filtered, washed with 8 reaction volumes of 10% (v/v) trichloroacetic acetic acid, 4 reaction volumes of 70% (v/v) ethanol, air dried, and 25 μl of scintillant (Microscint 20, Perkin-Elmer) was added to each reaction well.
The amount of light emitted from the scintillant was converted to counts per minute (CPM) on a Topcount® plate reader (Perkin-Elmer, Energy Range: Low, Efficiency Mode Normal, Count Time: 1 min, Background Subtract: none, Cross talk reduction: Off).
Data was analyzed in Excel® (Microsoft®) and ActivityBase® (idbsg). The reaction in the absence of enzyme was used to determine the background signal, which was subtracted from the enzymatic reactions. Positive control reactions were performed in the absence of compound, from which the background corrected activity was set as 100% polymerase activity. All data was expressed as a percentage of the positive control. The compound concentration at which the enzyme-catalyzed rate of RNA synthesis was reduced by 50% (IC50) was calculated by fitting
[formula] equation (t) to the data.where “Y” corresponds to the relative enzyme activity (in %), “% Min” is the residual relative activity at saturating compound concentration, “% Max” is the relative maximum enzymatic activity, “X” corresponds to the compound concentration, and “S” is the Hill coefficient (or slope).
`CNC(=O)c1c(-c2ccc(Oc3ccc(F)cc3)cc2)oc2cc(N(CCS(C)(=O)=O)S(C)(=O)=O)c(C3CC3)cc12` [Compound I-83, 5-cyclopropyl-2-[4-(4-fluoro-phenoxy)-phenyl]-6-[methanesulfonyl-(2-methanesulfonyl-ethyl)-amino]-benzofuran-3-carboxylic acid methylamide] gave an IC50 of 29 nM. For `CNC(=O)c1c(-c2ccc(Oc3ccccc3)cc2)oc2cc(N(CCO)S(C)(=O)=O)c(C3CC3)cc12` [Compound I-33], the IC50 was 21 nM. In the case of `CNC(=O)c1c(-c2ccc(Oc3ccc(F)cc3)cc2)oc2cc(N(CCN)S(C)(=O)=O)c(C3CC3)cc12.Cl` [Compound I-74], the IC50 is reported as 83 nM. For `CNC(=O)c1c(-c2ccc(Oc3ccc(F)cc3)cc2)oc2cc(C(C)=O)c(OC)cc12` [Compound I-104], the IC50 was 139 nM. With `CNC(=O)c1c(-c2ccc(Oc3ccccc3)cc2)oc2cc(N3CCCS3(=O)=O)c(C3CC3)cc12` [Compound I-82, 5-Cyclopropyl-6-(1,1-dioxo-1λ^6-isothiazolidin-2-yl)-2-(4-phenoxy-phenyl)-benzofuran-3-carboxylic acid methylamide] the IC50 was 66 nM. With `CNC(=O)c1c(-c2ccc(Oc3ccc(F)cc3)cc2)oc2cc(NS(C)(=O)=O)c(C3CC3)cc12` [Compound I-40] the IC50 was 98 nM. `CNC(=O)c1c(-c2ccc(Oc3cccc(F)c3F)cc2)oc2cc(N(CCO)S(C)(=O)=O)c(OC)cc12` [Compound I-22] gave an IC50 of 55 nM. `CNC(=O)c1c(-c2ccc(Oc3ccccc3F)cc2)oc2cc(N(C)S(C)(=O)=O)c(C)cc12` [Compound I-59, 2-[4-(2-Fluoro-phenoxy)-phenyl]-6-(methanesulfonyl-methyl-amino)-5-methyl-benzofuran-3-carboxylic acid methylamide] showed an IC50 of 93 nM. With `CNC(=O)c1c(-c2ccc(Oc3ccc(F)cc3)cc2)oc2cc(N(CC(N)=O)S(C)(=O)=O)c(C3CC3)cc12` [Compound I-73] the IC50 was 56 nM. Compound `CNC(=O)c1c(-c2ccc(Oc3ccc(F)cc3)cc2)oc2cc(C(C)(C)O)c(OC)cc12` [Compound I-103] has an IC50 of 37 nM. In the case of `CNC(=O)c1c(-c2ccc(Oc3ccc(F)cc3)cc2)oc2cc(N(C)S(C)(=O)=O)c(OC)cc12` [Compound I-35], the IC50 is reported as 51 nM. `CNC(=O)c1c(-c2ccc(Oc3ccc(F)cc3)cc2)oc2cc(N(CCCS(N)(=O)=O)S(C)(=O)=O)c(C3CC3)cc12` [Compound I-118] showed an IC50 of 7 nM. `CNC(=O)c1c(-c2ccc(Oc3ccccc3Cl)cc2)oc2cc(N(CCO)S(C)(=O)=O)c(OC(C)C)cc12` [Compound I-49] gave an IC50 of 143 nM. `CNC(=O)c1c(-c2ccc(Oc3ccc(F)cc3)cc2)oc2cc(N(C3CCOCC3)S(C)(=O)=O)c(C3CC3)cc12` [Compound I-72] showed an IC50 of 591 nM. Work on `CNC(=O)c1c(-c2ccc(Oc3ccc(F)cc3)cc2)oc2cc(N(CCSC)S(C)(=O)=O)c(C3CC3)cc12` [Compound I-81, 5-Cyclopropyl-2-[4-(4-fluoro-phenoxy)-phenyl]-6-[methanesulfonyl-(2-methylsulfanyl-ethyl)-amino]-benzofuran-3-carboxylic acid methylamide] yielded an IC50 of 16 nM. `CNC(=O)c1c(-c2ccc(Nc3cc(F)cc(F)c3)cc2)oc2cc(N(CCO)S(C)(=O)=O)c(OC)cc12` [Compound I-16] gave an IC50 of 172 nM. For `CNC(=O)c1c(-c2ccc(Oc3ccc(F)cc3)cc2)oc2cc(N(CC3(C)COC3)S(C)(=O)=O)c(C3CC3)cc12` [Compound I-87], the IC50 was 134 nM. Compound `CNC(=O)c1c(-c2ccc(Oc3ccc(F)cc3)cc2)oc2cc(N(CCNC(C)=O)S(C)(=O)=O)c(C3CC3)cc12` [Compound I-79] has an IC50 of 68 nM. For `CCN(c1cc2oc(-c3ccc(Oc4ccccc4F)cc3)c(C(=O)NC)c2cc1OC)S(C)(=O)=O` [Compound I-23], the IC50 was 52 nM. `CNC(=O)c1c(-c2ccc(Oc3ccc(F)cc3)cc2)oc2cc(N(CC(F)(F)CN)S(C)(=O)=O)c(C3CC3)cc12` [Compound I-115, 6-[(3-Amino-2,2-difluoro-propyl)-methanesulfonyl-amino]-5-cyclopropyl-2-[4-(4-fluoro-phenoxy)-phenyl]-benzofuran-3-carboxylic acid methylamide] gave an IC50 of 29 nM. `CNC(=O)c1c(-c2ccc(Nc3ccc(F)cc3)cc2)oc2cc(N(CCO)S(C)(=O)=O)c(C3CC3)cc12` [Compound I-62] showed an IC50 of 13 nM. Compound `CNC(=O)c1c(-c2ccc(Nc3cccnc3)cc2)oc2cc(N(CCO)S(C)(=O)=O)c(OC)cc12` [Compound I-122] has an IC50 of 2050 nM. `CNC(=O)c1c(-c2ccc(Oc3ccc(F)cc3)cc2)oc2cc(N(CCOC)S(C)(=O)=O)c(C3CC3)cc12` [Compound I-57] showed an IC50 of 110 nM. `CNC(=O)c1c(-c2ccc(Oc3ccccc3)cc2)oc2cc(-c3c(C)noc3C)c(C3CC3)cc12` [Compound I-85, 5-Cyclopropyl-6-(3,5-dimethyl-isoxazol-4-yl)-2-(4-phenoxy-phenyl)-benzofuran-3-carboxylic acid methylamide] gave an IC50 of 344 nM. Compound `CNC(=O)c1c(-c2ccc(Nc3ccccc3F)cc2)oc2cc(N(CCO)S(C)(=O)=O)c(OC(C)C)cc12` [Compound I-34] has an IC50 of 64 nM. In the case of `CNC(=O)c1c(-c2ccc(Oc3ccc(F)cc3)cc2)oc2cc(N([C@H]3CC[C@@H](O)CC3)S(C)(=O)=O)c(C3CC3)cc12` [Compound I-99], the IC50 is reported as 23 nM. `CNC(=O)c1c(-c2ccc(Nc3ccccc3F)cc2)oc2cc(N(CCO)S(C)(=O)=O)c(OC)cc12` [Compound I-5] gave an IC50 of 34 nM. In the case of `CNC(=O)c1c(-c2ccc(Oc3ccc(F)cc3)cc2)oc2cc(N(CC3CCOCC3)S(C)(=O)=O)c(C3CC3)cc12` [Compound I-56], the IC50 is reported as 157 nM. `CNC(=O)c1c(-c2ccc(Oc3ccc(F)cc3)cc2)oc2cc(N(CCCSC)S(C)(=O)=O)c(C3CC3)cc12` [Compound I-113] gave an IC50 of 18 nM. Compound `CCN(c1cc2oc(-c3ccc(Nc4ccc(F)cc4)cc3)c(C(=O)NC)c2cc1OC)S(C)(=O)=O` [Compound I-17] has an IC50 of 81 nM. Compound `CCN(c1cc2oc(-c3ccc(Oc4ccc(F)cc4)cc3)c(C(=O)NC)c2cc1OC)S(C)(=O)=O` [Compound I-24] has an IC50 of 130 nM. `CNC(=O)c1c(-c2ccc(Oc3ccc(F)c(F)c3)cc2)oc2cc(N(CCO)S(C)(=O)=O)c(OC)cc12` [Compound I-45] gave an IC50 of 48 nM. Work on `CNC(=O)c1c(-c2ccc(Nc3cccc(F)c3)cc2)oc2cc(N(CCO)S(C)(=O)=O)c(OC(C)C)cc12` [Compound I-29] yielded an IC50 of 94 nM. Work on `CNC(=O)c1c(-c2ccc(Oc3cccc(F)c3)cc2)oc2cc(N(CCO)S(C)(=O)=O)c(OC(C)C)cc12` [Compound I-26] yielded an IC50 of 82 nM. With `CNC(=O)c1c(-c2ccc(Oc3cccc(Cl)c3)cc2)oc2cc(N(CCO)S(C)(=O)=O)c(OC)cc12` [Compound I-38] the IC50 was 50 nM. In the case of `CNC(=O)c1c(-c2ccc(Oc3ccccc3)cc2)oc2cc(C3CCCN3)c(C3CC3)cc12` (stereo not drawn) [Compound I-90, 5-5-Cyclopropyl-2-(4-phenoxy-phenyl)-6-pyrrolidin-2-yl-benzofuran-3-carboxylic acid methylamideyclopropyl-2-(4-phenoxy-phenyl)-6-pyrrolidin-2-yl-benzofuran-3-carboxylic acid methylamide], the IC50 is reported as 254 nM.

System: not given
Experiment: not given
Settings: not given
`CNC(=O)c1c(-c2ccc(Oc3ccc(F)cc3)cc2)oc2cc(N(CCS(C)(=O)=O)S(C)(=O)=O)c(C3CC3)cc12` [Compound I-83, 5-cyclopropyl-2-[4-(4-fluoro-phenoxy)-phenyl]-6-[methanesulfonyl-(2-methanesulfonyl-ethyl)-amino]-benzofuran-3-carboxylic acid methylamide] showed a melting point of 158 to 160 °C. With `CNC(=O)c1c(-c2ccc(Oc3ccccc3)cc2)oc2cc(N(CCO)S(C)(=O)=O)c(C3CC3)cc12` [Compound I-33] the melting point was 110 to 115 °C. `CNC(=O)c1c(-c2ccc(Oc3ccc(F)cc3)cc2)oc2cc(N(CCN)S(C)(=O)=O)c(C3CC3)cc12.Cl` [Compound I-74] showed a melting point of 223 to 224 °C. Work on `CNC(=O)c1c(-c2ccc(Oc3ccc(F)cc3)cc2)oc2cc(C(C)=O)c(OC)cc12` [Compound I-104] yielded a melting point of 207 to 209 °C. Work on `CNC(=O)c1c(-c2ccc(Oc3ccccc3)cc2)oc2cc(N3CCCS3(=O)=O)c(C3CC3)cc12` [Compound I-82, 5-Cyclopropyl-6-(1,1-dioxo-1λ^6-isothiazolidin-2-yl)-2-(4-phenoxy-phenyl)-benzofuran-3-carboxylic acid methylamide] yielded a melting point of 174 to 176 °C. Compound `CNC(=O)c1c(-c2ccc(Oc3ccc(F)cc3)cc2)oc2cc(NS(C)(=O)=O)c(C3CC3)cc12` [Compound I-40] has a melting point of 169 to 170 °C.
